From PubChem BioAssay (NCI)
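Tested at 5 concentrations; 48 h exposure; 96-well plates; endpoints linearly interpolated, else capped at highest concentration. TGI marks complete inhibition of growth.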

Tests used:
Assay in all cases: NCI tumour cell line growth inhibition, 48 h
HCT-116 colon = test system: HCT-116 colon
MDA-N = test system: MDA-N
SF-268 CNS = test system: SF-268 CNS
T-47D breast = test system: T-47D breast
ACHN renal = test system: ACHN renal
SF-295 CNS = test system: SF-295 CNS
OVCAR-4 ovarian = test system: OVCAR-4 ovarian
A498 renal = test system: A498 renal
SNB-19 CNS = test system: SNB-19 CNS
RXF 393 renal = test system: RXF 393 renal
RPMI-8226 leukemia = test system: RPMI-8226 leukemia
PC-3 prostate = test system: PC-3 prostate
HCC-2998 colon = test system: HCC-2998 colon
SW-620 colon = test system: SW-620 colon
DU-145 prostate = test system: DU-145 prostate
SF-539 CNS = test system: SF-539 CNS
OVCAR-5 ovarian = test system: OVCAR-5 ovarian
SK-MEL-28 melanoma = test system: SK-MEL-28 melanoma
SK-MEL-2 melanoma = test system: SK-MEL-2 melanoma
HL-60(TB) leukemia = test system: HL-60(TB) leukemia
HOP-92 NSCLC = test system: HOP-92 NSCLC
NCI-H522 lung = test system: NCI-H522 lung
HS 578T breast = test system: HS 578T breast
HT29 colon = test system: HT29 colon
IGROV1 ovarian = test system: IGROV1 ovarian
CCRF-CEM leukemia = test system: CCRF-CEM leukemia
NCI-H23 lung = test system: NCI-H23 lung
K-562 leukemia = test system: K-562 leukemia
UACC-257 melanoma = test system: UACC-257 melanoma
COLO 205 colon = test system: COLO 205 colon
OVCAR-8 ovarian = test system: OVCAR-8 ovarian
NCI/ADR-RES ovarian = test system: NCI/ADR-RES ovarian
MCF7 breast = test system: MCF7 breast
MDA-MB-435 = test system: MDA-MB-435
CAKI-1 renal = test system: CAKI-1 renal
KM12 colon = test system: KM12 colon
HOP-62 NSCLC = test system: HOP-62 NSCLC
LOX IMVI melanoma = test system: LOX IMVI melanoma
UO-31 renal = test system: UO-31 renal
SN12C renal = test system: SN12C renal
NCI-H460 lung = test system: NCI-H460 lung
786-0 renal = test system: 786-0 renal
HCT-15 colon = test system: HCT-15 colon
SNB-75 CNS = test system: SNB-75 CNS
SK-OV-3 ovarian = test system: SK-OV-3 ovarian
OVCAR-3 ovarian = test system: OVCAR-3 ovarian
A549 NSCLC = test system: A549 NSCLC
M14 melanoma = test system: M14 melanoma
EKVX NSCLC = test system: EKVX NSCLC
U251 CNS = test system: U251 CNS
MDA-MB-231 breast = test system: MDA-MB-231 breast
SK-MEL-5 melanoma = test system: SK-MEL-5 melanoma
MALME-3M melanoma = test system: MALME-3M melanoma
MOLT-4 leukemia = test system: MOLT-4 leukemia
TK-10 renal = test system: TK-10 renal
BT-549 breast = test system: BT-549 breast
NCI-H226 lung = test system: NCI-H226 lung
SR leukemia = test system: SR leukemia
UACC-62 melanoma = test system: UACC-62 melanoma

`COC(=O)c1ccc2c(c1)CC1(C2)Cc2cc3c(cc2C1=O)CCC3` (stereo unspecified) was tested, and the TGI (HCT-116 colon) was > 100 µM, the TGI (MDA-N) was 61.1 µM and the TGI (SF-268 CNS) was > 100 µM. The TGI (T-47D breast) was > 100 µM, the TGI (ACHN renal) was > 100 µM and the TGI (SF-295 CNS) was > 100 µM. The TGI (OVCAR-4 ovarian) was > 100 µM, the TGI (A498 renal) was > 100 µM and the TGI (SNB-19 CNS) was > 100 µM. The TGI (RXF 393 renal) was > 100 µM, the TGI (RPMI-8226 leukemia) was 38.7 µM and the TGI (PC-3 prostate) was > 100 µM. The TGI (HCC-2998 colon) was > 100 µM, the TGI (SW-620 colon) was > 100 µM and the TGI (DU-145 prostate) was > 100 µM. For the same molecule, the TGI (SF-539 CNS) was > 100 µM, the TGI (OVCAR-5 ovarian) was > 100 µM and the TGI (SK-MEL-28 melanoma) was > 100 µM. The TGI (SK-MEL-2 melanoma) was > 100 µM, the TGI (HL-60(TB) leukemia) was 39.8 µM and the TGI (HOP-92 NSCLC) was > 100 µM. For the same molecule, the TGI (NCI-H522 lung) was > 100 µM, the TGI (HS 578T breast) was > 100 µM and the TGI (HT29 colon) was 34.7 µM. The TGI (IGROV1 ovarian) was > 100 µM, the TGI (CCRF-CEM leukemia) was 52.7 µM and the TGI (NCI-H23 lung) was > 100 µM. The TGI (K-562 leukemia) was > 100 µM, the TGI (UACC-257 melanoma) was 46.7 µM and the TGI (COLO 205 colon) was 38.7 µM. For the same molecule, the TGI (OVCAR-8 ovarian) was > 100 µM, the TGI (NCI/ADR-RES ovarian) was 51.3 µM and the TGI (MCF7 breast) was 50.9 µM. It also gave a TGI (MDA-MB-435) of 57.4 µM, a TGI (CAKI-1 renal) of 96.5 µM and a TGI (KM12 colon) of 23.1 µM. The TGI (HOP-62 NSCLC) was > 100 µM, the TGI (LOX IMVI melanoma) was 94.2 µM and the TGI (UO-31 renal) was > 100 µM. For the same molecule, the TGI (SN12C renal) was > 100 µM, the TGI (NCI-H460 lung) was > 100 µM and the TGI (786-0 renal) was > 100 µM. For the same molecule, the TGI (HCT-15 colon) was > 100 µM, the TGI (SNB-75 CNS) was 83.6 µM and the TGI (SK-OV-3 ovarian) was > 100 µM. The TGI (OVCAR-3 ovarian) was 87.8 µM, the TGI (A549 NSCLC) was > 100 µM and the TGI (M14 melanoma) was 42.2 µM. For the same molecule, the TGI (EKVX NSCLC) was > 100 µM, the TGI (U251 CNS) was > 100 µM and the TGI (MDA-MB-231 breast) was > 100 µM. For the same molecule, the TGI (SK-MEL-5 melanoma) was 21.2 µM, the TGI (MALME-3M melanoma) was 82.8 µM and the TGI (MOLT-4 leukemia) was 29.2 µM. For the same molecule, the TGI (TK-10 renal) was > 100 µM.
With `CC(=O)O[C@@H]1C=C(C)[C@H](CBr)O[C@@]2(C)CC[C@H](Br)C(C)(C)[C@H]12` the TGI (HCT-116 colon) was > 100 µM, the TGI (MDA-N) was > 100 µM and the TGI (SF-268 CNS) was > 100 µM. For the same molecule, the TGI (BT-549 breast) was > 100 µM, the TGI (ACHN renal) was > 100 µM and the TGI (NCI-H226 lung) was > 100 µM. The TGI (SF-295 CNS) was > 100 µM, the TGI (OVCAR-4 ovarian) was > 100 µM and the TGI (A498 renal) was > 100 µM. For the same molecule, the TGI (SNB-19 CNS) was > 100 µM, the TGI (SR leukemia) was > 100 µM and the TGI (RXF 393 renal) was > 100 µM. The TGI (RPMI-8226 leukemia) was > 100 µM, the TGI (PC-3 prostate) was > 100 µM and the TGI (HCC-2998 colon) was > 100 µM. The TGI (SW-620 colon) was > 100 µM, the TGI (UACC-62 melanoma) was > 100 µM and the TGI (DU-145 prostate) was > 100 µM. The TGI (SF-539 CNS) was > 100 µM, the TGI (OVCAR-5 ovarian) was > 100 µM and the TGI (SK-MEL-28 melanoma) was > 100 µM. For the same molecule, the TGI (SK-MEL-2 melanoma) was > 100 µM, the TGI (HL-60(TB) leukemia) was > 100 µM and the TGI (HOP-92 NSCLC) was > 100 µM. For the same molecule, the TGI (NCI-H522 lung) was 90.2 µM, the TGI (HS 578T breast) was > 100 µM and the TGI (HT29 colon) was > 100 µM. The TGI (IGROV1 ovarian) was > 100 µM, the TGI (CCRF-CEM leukemia) was > 100 µM and the TGI (NCI-H23 lung) was > 100 µM. The TGI (K-562 leukemia) was > 100 µM, the TGI (UACC-257 melanoma) was > 100 µM and the TGI (COLO 205 colon) was > 100 µM. The TGI (OVCAR-8 ovarian) was > 100 µM, the TGI (NCI/ADR-RES ovarian) was > 100 µM and the TGI (MCF7 breast) was > 100 µM. The TGI (MDA-MB-435) was > 100 µM, the TGI (CAKI-1 renal) was > 100 µM and the TGI (KM12 colon) was > 100 µM. For the same molecule, the TGI (HOP-62 NSCLC) was > 100 µM, the TGI (LOX IMVI melanoma) was > 100 µM and the TGI (UO-31 renal) was > 100 µM. The TGI (SN12C renal) was > 100 µM, the TGI (NCI-H460 lung) was > 100 µM and the TGI (786-0 renal) was > 100 µM. For the same molecule, the TGI (HCT-15 colon) was > 100 µM, the TGI (SNB-75 CNS) was > 100 µM and the TGI (SK-OV-3 ovarian) was > 100 µM. The TGI (A549 NSCLC) was > 100 µM, the TGI (M14 melanoma) was > 100 µM and the TGI (EKVX NSCLC) was > 100 µM. The TGI (U251 CNS) was > 100 µM, the TGI (MDA-MB-231 breast) was > 100 µM and the TGI (SK-MEL-5 melanoma) was > 100 µM. For the same molecule, the TGI (MOLT-4 leukemia) was > 100 µM and the TGI (TK-10 renal) was > 100 µM.
